The text below walks through data of US11091546B2, “Optimized PNE-based chimeric receptor T cell switches and uses thereof” (The Scripps Research Institute, priority 2015, dated 2021).

The test system of one data set is RS4;11 cells. The data set is described as follows: Inhibition of sCAR-T cell activity by free PNE peptide. The format is cell-based. The following applies: excess soluble peptide with LCNT switch. The text has this: The non-binding mutated version of the PNE (PNE-X; bar farthest to the right) was, again, used as a control. […] Alanine mutated free peptide (PepX) has no effect. Only the cognate free peptide epitope inhibits cytotoxicity (see FIGS. 26D-F). FIG. 26E-F show live cell imaging (Incucyte, Essen).
Specificity of sCAR-T cell activation is essential to switch-based control.
One of the great advantages of the sCART cell system is that the activity can be controlled. This can be achieved by either dose escalation of the switches or by stopping switch dosing. In the event that the cessation of switch dosing is not an acute enough response to halt sCART cell activity, immunological synapses are disrupted by the administration of free peptide.
Specificity of sCAR-T cell activation is a critical design consideration for switch-based control.

The test system of data set [1] is Nalm-6^Luc/GFP cells. Kind of data set: Nalm-6 Luc/GFP leukemia xenograft. In kind it is in vivo. To be noted: for tumor burden (IVIS): 0.5 mg/kg I.V. every other day for 10 days. The procedure: NSG mice were inoculated with CD19^+ Nalm-6^GFP/Luc cells. Six days later, 40×10^6 sCAR-T cells were delivered IV and switch dosing commenced every other day at 0.5 mg/kg for 10 days. Tumor burden was followed by luminescence after injection of luciferin and imaged on an in vivo imaging system (IVIS; PerkinElmer, Waltham, Mass., USA).
Asterisks indicate significance from LCNT Fab group. Data are represented as means±SEM, and statistical significance was calculated using the 2-way ANOVA with Bonferroni's post-test (B & E; shown for final time-point only) or by one-tailed student's t-test (C & F) where *=p<0.05, **=p<0.01 and ***=p<0.001.
NSG mice were inoculated with Nalm-6^GFP/Luc as described in FIG. 28. […] A fourth group consisted of two cohorts (n=3) of mice injected I.V. with sCAR-T cells without (−) LCNT Fab switch. LCNT Fab dosing in the indicated group was carried out daily at 0.5 mg/kg after the initial T cell infusion. Luminescence was measured at 6 h and subsequently every 24 h as indicated. Cohorts were sacrificed for analysis immediately following IVIS imaging. […] Gray lines indicate tumor burden in PBS and sCAR-T cell—LCNT Fab controls. […] Data are represented as means±SEM, and statistical significance was calculated using the one-tailed student's t-test (C & D) where *=p<0.05, **=p<0.01 and ***=p<0.001.
NSG mice were inoculated with Nalm6^GFP/Luc and six days later engrafted with short-dimeric sCAR-T cells as described in FIG. 29. […] Dosing was carried out for 15 d starting at day 6 (corresponding with sCAR-T cell infusion) as indicated by gray shading. Control groups CART-19 and PBS received no switch. The NS group received sCAR-T cells but no switch. Open circles denote the death of individual mice without evidence of tumor burden and may reflect GVHD. Triangles in PBS, NS and q.a.d. group indicate death due to increasing tumor burden. […] (19) indicates CART-19. […] (19) indicates CART-19. […] Triangles indicate the death of individual mice with significant tumor burden. The single mouse death in the 0.05 mg/kg group occurred while tumor burden was decreasing. […] Statistical significance was calculated using the one-tailed student's t-test (B, C & E) where *=p<0.05, **=p<0.01 and ***=p<0.001.
The different sCAR designs were tested in a xenograft model harboring luciferized NALM-6 (CD19+, CD80−, CD86−) cells. 1 mg/kg monovalent switch “A” was administered along with sCAR cells. […] Optimized hinge improved response. Short hinge CARs have faster clearance. Short, dimeric hinge CARs have improved persistence. Tumor burden was visualized with IVIS imaging. Experiments are repeated with a humanized scFv and bivalent switches.
Activity of the switchable CAR-T cell platform in vivo was evaluated via tumor regression in a Nalm-6^Luc/GFP leukemia xenograft model in immunodeficient NOD scid gamma (NSG) mice. These mice without treatment succumb to disease within 21 days. The impact of CAR hinge design on in vivo efficacy was determined using mice inoculated with Nalm-6^Luc/GFP, followed by I.V. injection of long, short, or short-dimeric sCAR-T cells 6 days later. The LCNT Fab was dosed I.V. (0.5 mg/kg) every other day for 10 days and tumor regression was followed by in vivo imaging (IVIS) of the luciferase signal from Nalm-6^Luc/GFP cells (FIG. 29A).
The effect of switch grafting position on the control of tumor burden was determined. As with the previous model, short-dimeric CAR-T cells were injected 6 days after tumor inoculation and mice were treated every other day (starting at day 6) with 0.5 mg/kg LCNT, HCNT, NTBV, LCC1, or HCCT Fab switches (FIG. 29D).
To determine the proliferation and localization of sCAR-T cell cytotoxicity during this time interval, mice were sorted into 5 cohorts per treatment regimen and analyzed at 8, 24, 48, 72, and 96 h after treatment with short-dimeric sCAR-T cells+LCNT Fab switch or with conventional CART-19 and no switch. […]

Data set [2] concerns Nalm-6^Luc/GFP cells. Kind of data set: Nalm-6 Luc/GFP leukemia xenograft. In kind it is in vivo.
For a further data set, the system named is RS4;11 (CD19 positive). The format is cell-based, human. As for the experimental part: Activity was assessed against NALM-6 (CD19^+), RS4;11 (CD19^+), or RPMI-8226 (CD19^−) (Table 2). The activity of the IgG (FcNull) switch was assessed against RS4;11 (CD19^+), or K562 (CD19^−) (Table 2). The activity of the C-terminal switch was assessed against RS4;11 (CD19^+), or K562 (CD19^−) (Table 4).
sCAR-T cells were co-cultured (96-well plate round bottom; 20-24h; 37° C.; 5% CO2) with RS4;11 (CD19^+) or K562 (CD19^−) cells at a ratio of 10 sCAR-T cells to 1 RS4;11/K562 cell (110,000 cells in total) in 100 uL of RPMI-1640 supplemented with 5% heat inactivated fetal calf serum (Thermo), 1% penicillin-streptomycin (Gibco), 1% L-Glutamine (Gibco), 1 mM sodium pyruvate (Gibco) and 1% non-essential amino acids (Gibco). After 24 hours, each plate was centrifuged at 400×g for 5 minutes at 4° C. To measure target cell lysis, the intracellular protein lactate dehydrogenase (LDH) was measured in the cytotoxicity assay supernatants from the co-cultured cells using the CytoTox 96® Non-Radioactive Cytotoxicity Assay kit (Promega). To measure the effector responses of the sCART cells in vitro, cytokine levels were measured in the cytotoxicity assay supernatants using the Cytometric Bead Array (CBA) Human Th1/Th2 Cytokine Kit II (BD). […]
The GCN4 CAR design was therefore modified to contain the CD8 hinge region (used in CART-19), which has an extracellular CAR domain of approximately 80 Å, and an IgG4 hinge with an extracellular CAR domain of approximately 15-30 Å. An additional construct was developed where a mutation was introduced into the IgG4 hinge that allows for spontaneous disulphide bridge formation between receptor molecules (IgG4m). […] Briefly, activated PBMC were transduced with lentivirus (SEQ ID: 1) containing the anti-PNE CAR construct (SEQ ID: 180) with the CD8 (SEQ ID: 68), IgG4 (SEQ ID: 70) and IgG4m (SEQ ID: 71) hinge domains.
Monovalent and bivalent combinations of these switches were expressed in mammalian protein expression systems (HEK293 or CHO cells) and purified using protein-G columns. Switches were used in cytotoxicity assays at a dose titration within the range of 10 nM to 0.0001 nM. The activity of each switch combination was tested in vitro in the General cytotoxicity assays where LDH release, cytokine production and sCART cell activation were compared (FIGS. 11A-11C).
CAR-T or target cells were incubated with 1 pM to […] of switch in FACS buffer (PBS, 1% FCS, 2 mM EDTA) for 30 minutes at 4° C. before being washed twice and then incubated with the PE-conjugated goat-anti-human kappa antibody (1:100). Cells were washed two times and analyzed using the Accuri flow cytometer (BD). CAR-T cell activity was determined using the CytoTox 96® Non-Radioactive Cytotoxicity Assay (Promega). CAR-T cells were incubated with target cells in the presence of switch for 20-24 hours at 37° C. in complete RPMI with 5% FCS. At the end of the assay, 30 μL of cell free supernatant was added to 30 μL of the LDH assay reagent in a 96-well plate and incubated for 30 minutes at room temperature in the dark; 30 μL of stop solution was added before the plate was read at OD495.

In another data set the target is GCN4 epitope (7P14P) (Saccharomyces cerevisiae, UniProt P03069). The following applies: GCN4 epitope (7P14P) NYHLENEVARLKKL; read-out: dissociation constant (Kd); cited from earlier work.
[3] abbreviates: retreatment 0.5 mg/kg for 10 days.

Take “NYHLENEVARLKKL (CAR binding region - yeast transcription factor GCN4) [PNE]”: the “effect of free peptide on sCAR-T cell activity” value in the data set on RS4;11 cells was “fully inhibited”.
“anti-CD19 Fab LCNT: FMC63 anti-CD19 Fab, GCN4 peptide on N-terminus of light chain (SEQ ID 36 & 29)”: the “serum IL-2, INFγ, TNFα at 24 h vs CART-19” value in the data set on Nalm-6^Luc/GFP cells [1] (0.05 mg/kg every day) was “significantly lower than CART-19”. Further, the “duration of sustained tumor regression after dosing had stopped” value with Nalm-6^Luc/GFP cells [1] (0.5 mg/kg every day or every other day for 15 days) is above 100 days. In the data set on Nalm-6^Luc/GFP cells [1] (0.05 and 0.5 mg/kg, vs […] group), the “T cell phenotype in peripheral blood (CD45RA, CD62L)” value was “significantly larger populations of CD45RA^−CD62L^+ central memory cells”. The “T cell counts in peripheral blood” value in the data set on Nalm-6^Luc/GFP cells [1] (day 17, short-dimeric sCAR-T cells, 0.5 mg/kg every other day) is reported as “greatest T cell expansion”. Further, the “tumor burden (IVIS)” value in the data set on Nalm-6^Luc/GFP cells [1] (long hinge (CD8) sCAR-T cells) is listed as “minimal impact on disease”. In addition, in the data set on Nalm-6^Luc/GFP cells [1] (setting [3]), the “time to decrease tumor signal to levels equivalent to CART-19” value is at most 5 days and the “tumor-free time after final dose of second dosing period” value is recorded as above 35 days. Besides, in the data set with Nalm-6^Luc/GFP cells [1] (sCAR-T + daily 0.5 mg/kg LCNT Fab, or CART-19 without switch), the “time of peak human IL-2 in peripheral blood” value amounted to 48 h. Moreover, the “tumor burden (IVIS)” value in the data set on Nalm-6^Luc/GFP cells [1] (short (IgG4) sCAR-T cells) was “significant decrease in tumor burden”. The “tumor burden (IVIS)” value in the data set on Nalm-6^Luc/GFP cells [1] (short-dimeric (IgG4m) sCAR-T cells) is “significant decrease in tumor burden”. The “tumor burden (IVIS), switch graft position comparison” value in the data set on Nalm-6^Luc/GFP cells [1] (short-dimeric sCAR-T cells, 0.5 mg/kg every other day from day 6) is given as “greatest reduction in tumor burden”. In addition, the “time to limit of luminescence detection” value in the data set with Nalm-6^Luc/GFP cells [1] (short-dimeric sCAR-T cells, daily 0.5 mg/kg) was at most 96 h. The “day on which tumor burden reached the limit of detection” value in the data set on Nalm-6^Luc/GFP cells [2] (0.05 mg/kg every day for 10 d) is at most 16 days. The “day of tumor relapse” value with Nalm-6^Luc/GFP cells [2] (after 0.05 mg/kg every day for 10 d) is 30 days. In the data set on RS4;11 (CD19 positive), the EC50 was 0.9 pM and the “increase in potency of cytotoxicity” value was 2.8 fold. The “increase in maximum target cell lysis” value in the data set with RS4;11 (CD19 positive) (short-dimeric sCAR vs CD8-based long hinge) was above 80%.

B1: 52SR4: high affinity anti-GCN4 (7P14P) scFv used as sCAR extracellular domain (protein)
scFv: DAVVTQESALTSSPGETVTLTCRSSTGAVTTSNYASWVQEKPDHLFTGLIGGTNNRAPGVPARFSGSLIGDKAALTITGAQTEDEAIYFCVLWYSDHWVFGGGTKLTVLGGGGGSGGGGSGGGGSGGGGSDVQLQESGPGLVAPSQSLSITCTVSGFLLTDYGVNWVRQSPGKGLEWLGVIWGDGITDYNSALKSRLSVTKDNSKSQVFLKMNSLQSGDSARYYCVTGLFDYWGQGTTLTVSS
As usually defined, the Kd is the constant that tells how readily two partners part at equilibrium. For B1, the Kd with GCN4 epitope (7P14P) is 5.2 pM.
